Source: US20240425464A1, “Substituted Monohydrazides as Potent Antifungal Agents” (University of Kentucky Research Foundation, priority 2023, published 2024)
≈ marks a conversion by molar mass, not a printed value.

How the values were obtained:
[1] = test system: C. auris strain AR Bank #390 (L); test: MIC determination by in vitro antifungal assay; assay type: cell-based, Candida auris; conditions: Candidozyma auris, C. auris AR Bank # 390 (L) (Table 2B); read-out: MIC
Experimental: (§1) The antifungal agent amphotericin B (AmB) was purchased from VWR (Radnor PA, USA). AmB was dissolved in DMSO at a final concentration of 5 mg/mL and was stored at −20° C., protected from light. Candida albicans American Type Culture Collection (ATCC) 10231 (strain A), C. albicans ATCC 64124 (B), and C. albicans ATCC MYA-2876 (C) were obtained from Utah State University. C. albicans ATCC 90819 (D), C. albicans ATCC MYA-2310 (E), C. albicans ATCC MYA-1237 (F), C. albicans ATCC MYA-1003 (G), Candida glabrata ATCC 2001 (H), Candida krusei ATCC 6258 (I), Candida parapsilosis ATCC 22019 (J), Cryptococcus neoformans ATCC MYA-895 (M), Aspergillus terreus ATCC MYA-3633 (N), and Aspergillus flavus ATCC MYA-3631 (0) were obtained from the American Type Culture Collection (ATCC; Manassas, VA, USA). Aspergillus nidulans ATCC 38163 (P) was obtained from University of Kentucky. Clinically derived Aspergillus fumigatus NRRL 163 (Q), A. fumigatus NRRL 5109 (R), and A. fumigatus NRRL 6113 (S) were obtained from Northern Regional Research Laboratory (NRRL). Candida auris 384 (K), C. auris 390 (L), and fungal strains 381-400 (including 10 C. auris (AR Bank #381-390), 3 Candida duobushaemulonii (AR Bank #391, AR Bank #392, and AR Bank #394), 2 Candida haemulonii (AR Bank #393 and AR Bank #395), 1 Kodameae ohmeri (AR Bank #396), 1 C. krusei (AR Bank #397), 1 Candida lusitaniae (AR Bank #398), and 2 Saccharomyces cerevisiae strains (AR Bank #399 and AR Bank #400)) were part of a larger fungal library from the AR Bank maintained by the Centers for Disease Control and Prevention (CDC; Atlanta, GA, USA). Filamentous fungi and yeasts were cultivated at 35° C. in RPMI 1640 medium (with L-glutamine, without sodium bicarbonate, Sigma-Aldrich, St. Louis, MO) buffered to a pH of 7.0 with 0.165 M morpholinepropanesulfonic acid (MOPS) buffer (Sigma-Aldrich). For cytotoxicity assays, HepG2 and the mouse macrophage cell line J774A.1 were obtained from University of Kentucky. The human embryonic kidney cell line, HEK-293, was bought from the ATCC. Mammalian cells were grown in Dulbecco's Modified Eagle's Medium (DMEM) (from VWR) with 10% fetal bovine serum (FBS) (from VWR) and 1% Pen/Strep (from ATCC). Cell lines were cultured at 37° C. with 5% CO2 and passaged by trypsinization with 0.05% trypsin: 0.53 mM EDTA (from Sigma-Aldrich).
(§2) From the actively growing yeast culture, 100 µL were then transferred to 900 μL of RPMI 1640 medium and re-adjusted to achieve OD600 of 0.12 (˜1×10^6 CFU/mL). The cell suspension was further diluted to achieve 1:100 in RPMI 1640 medium.
(§3) Finally, the activity of these monohydrazides was explored against […] non-Candida strains: Cryptococcus neoformans ATCC MYA-895 (M), Aspergillus terreus ATCC MYA-3633 (N), Aspergillus flavus ATCC MYA-3631 (O), Aspergillus nidulans ATCC 38163 (P), Aspergillus fumigatus NRRL 163 (Q), A. fumigatus NRRL 5109 (R), and A. fumigatus NRRL 6113 (S) (Tables 1A and 1B). The double dilution method was used with concentrations ranging from 0.06 to 31.3 j·tg mL^−1 for monohydrazides 1a-9j, and the commercially available positive antifungal control amphotericin B (AmB).

[2] = test system: panel of ten C. auris strains (AR Bank #381-390); test: MIC determination, summary over the C. auris panel; assay type: cell-based, Candida auris; conditions: Candidozyma auris; against all ten C. auris strains tested (AR Bank #381-390)
Experimental: as §1, §2

[3] = test system: Candida auris strain AR Bank #384 (K); test: MIC determination by in vitro antifungal assay; assay type: cell-based; conditions: Candidozyma auris, C. auris AR Bank # 384 (K) (Table 2B); read-out: MIC
Experimental: as §1, §2, §3

C. auris AR Bank #381 = test: MIC determination by in vitro antifungal assay; assay type: cell-based, Candida auris; conditions: Candidozyma auris; C. auris AR Bank # 381 (Table 2B); read-out: MIC
Experimental: as §1, §2

C. auris AR Bank #385 = test: MIC determination by in vitro antifungal assay; assay type: cell-based, Candida auris; conditions: Candidozyma auris; C. auris AR Bank # 385 (Table 2B); read-out: MIC
Experimental: as §1, §2

C. auris AR Bank #388 = test: MIC determination by in vitro antifungal assay; assay type: cell-based, Candida auris; conditions: Candidozyma auris; C. auris AR Bank # 388 (Table 2B); read-out: MIC
Experimental: as §1, §2

C. auris AR Bank #382 = test: MIC determination by in vitro antifungal assay; assay type: cell-based, Candida auris; conditions: Candidozyma auris; C. auris AR Bank # 382 (Table 2B); read-out: MIC
Experimental: as §1, §2

C. auris AR Bank #386 = test: MIC determination by in vitro antifungal assay; assay type: cell-based, Candida auris; conditions: Candidozyma auris; C. auris AR Bank # 386 (Table 2B); read-out: MIC
Experimental: as §1, §2

C. auris AR Bank #383 = test: MIC determination by in vitro antifungal assay; assay type: cell-based, Candida auris; conditions: Candidozyma auris; C. auris AR Bank # 383 (Table 2B); read-out: MIC
Experimental: as §1, §2

C. auris AR Bank #389 = test: MIC determination by in vitro antifungal assay; assay type: cell-based, Candida auris; conditions: Candidozyma auris; C. auris AR Bank # 389 (Table 2B); read-out: MIC
Experimental: as §1, §2

C. auris AR Bank #387 = test: MIC determination by in vitro antifungal assay; assay type: cell-based, Candida auris; conditions: Candidozyma auris; C. auris AR Bank # 387 (Table 2B); read-out: MIC
Experimental: as §1, §2

With `COc1cccc(NNC(=O)c2cccc(F)n2)c1` [Compound 5c] as the molecule, how does the MIC [1] read?
The MIC was 3.9 µg/mL (≈ 14.9 µM).

And the MIC [2]?
The MIC was 0.12 to 7.8 µg/mL (≈ 0.459 to 29.9 µM).

What about the MIC [3] of the same molecule?
The MIC was 0.49 µg/mL (≈ 1.88 µM).

What about the MIC (C. auris AR Bank #381) of the same molecule?
The MIC was 0.98 µg/mL (≈ 3.75 µM).

And the MIC (C. auris AR Bank #385)?
Its MIC is 0.98 µg/mL (≈ 3.75 µM).

What about the MIC (C. auris AR Bank #388) of the same molecule?
Its MIC is 0.98 µg/mL (≈ 3.75 µM).

And the MIC (C. auris AR Bank #382)?
Its MIC is 0.49 µg/mL (≈ 1.88 µM).

What about the MIC (C. auris AR Bank #386) of the same molecule?
Its MIC is 0.98 µg/mL (≈ 3.75 µM).

And the MIC (C. auris AR Bank #383)?
Its MIC is 1.95 µg/mL (≈ 7.46 µM).

What about the MIC (C. auris AR Bank #389) of the same molecule?
The MIC was 0.98 µg/mL (≈ 3.75 µM).

What about the MIC (C. auris AR Bank #387) of the same molecule?
The MIC was 0.49 µg/mL (≈ 1.88 µM).
